One compound from patent US8865909B2, “Anti-biofilm agents” (Yissum Research Development Company of the Hebrew …, priority 2008, dated 2014) can be followed below.

What is called MIC is the lowest concentration found to suppress growth. The low end stands for a more susceptible organism, the high end for a less susceptible organism.

Data set [1] has as its system V. harveyi strains. The experiment in a line: Quorum sensing inhibition (luminescence), planktonic conditions. The format is cell-based. The settings on record: BB120, BB170, BB886, BB721, JAF375, with AI-1, AI-2 or AI-0 spent medium. On the procedure: Mutant strains of V. harveyi, which are impaired at different locations of the quorum sensing (QS) cascade (see, Table 1 hereinabove) were used for the QSI assays. Bacteria were grown to cell density of 1.5-2.5×10^9 CFU/ml (15-16 hours) in AB medium at 30° C. with constant shaking. The fresh cultures were then diluted 5000-fold in fresh AB medium containing TZD10, an exemplary ABF agent according to embodiments of the present invention, at concentrations of 0.02, 0.2, 20 and 200 μM. […]
The assay was conducted in white 96-well microtitraton plates with a clear bottom (NUNC, Denmark). Luminescence was measured continuously by a GENios reader (TECAN, Austria) every 30 minutes and the bacterial density was determined (O.D. 595 nm).
Each sample was tested in three separate biological experiments, each conducted in triplicate samples. The effect of the ABF agent was determined relatively to the endogenous level of luminescence expressed by V. harveyi BB120, BB721, BB170, BB886 and JAF375 relative to the OD, by calculating the area under the curve (AUC) between 3.5-7 hours, applying the trapezoid rule for AUC calculation.

In data set [2] the test system is Vero cells. The experiment in a line: Vero cells detachment assay (96-well polystyrene plate, XTT). The class given is cell-based. The method, then:
Vero cells (0.1 ml, 1.6×10^6 cells/ml) were plated in each well of flat 96-wells polystyrene plate (Nunc), and incubated overnight at 37° C. and 5% CO2. The cells were then incubated with various concentrations of the exemplary tested ABF agent TZD10. At the indicated time intervals, the cells were washed and re-suspended in fresh medium. XTT (2,3-bis-(2-methoxy-4-nitro-5-sulfophenyl)-2H-tetrazolium-5-carboxanilide) analysis was performed to determine the viability of the attached cells.

Data set [3] relates to MDCK cells. Briefly: MDCK cells viability assay (XTT). The format is cell-based, canine. The settings on record: 40 minutes + 120 minutes with XTT. The method, then:
(§1) Madine-Derby canine kidney cells (MDCK) are a non-cancerous, polarized epithelial cell line, used in the research of cell polarity mechanisms, and in the research of pathogen interactions with epithelial tissues. These cells produce monolayers in which cells are polarized and tightly connected to each other. The cells were treated with TZD10 for 40 minutes without the XTT reagents that were then added for further 120 minutes incubation. The influence of TZD10 on the attachment of MDCK cells was investigated using an identical method used for the Vero cells (the 96 well polystyrene plate method) as presented hereinabove.

Data set [4] relates to MDCK cells. Briefly: MDCK cells detachment assay. The class given is cell-based, canine. The method, then: as §1
Data set [5] concerns V. harveyi wild-type strain (BB120) matured biofilms. Briefly: Biofilm disruption by confocal scanning laser microscopy. The format is cell-based. The note with it: 2, 20, 200 μM (lower than MIC), 18 hours. On the procedure: The biofilm eradication concentration (BEC) for exemplary ABF agents according to embodiments of the present invention was measured as the effect of the tested agent on mature and fully formed biofilm. The effect of TZD10, an exemplary ABF agent according to embodiments of the present invention, on the depth and the density of the biofilm was determined using fluorescent stains analyzed by computer image analysis using confocal scanning laser microscopy (CLSM). Briefly, biofilms were allowed to form in sterile micrtiture dishes as described hereinabove. After washing the formed biofilm, fresh AB medium and an appropriate medium containing TZD10 were added and incubated for additional 18 hours. Bacteria in biofilm were stained with fluorescent dyes to detect the biofilm. The stained biofilms were examined with a Zeiss LSM 410 confocal laser scanning system attached to a Zeiss Axiovert inverted microscope fitted with a 40×/1.3 Plan-Neofluar lens. In each experiment, exciting laser intensity, background level, contrast and electronic zoom size were maintained at the same level. At least 3 random fields for each experiment were chosen and scored from each sample. Biofilm structure was analyzed as a series of horizontal opto-digital sections. […]

The subject of data set [6] is V. harveyi strains. The experiment in a line: MIC, broth dilution antibacterial susceptibility test. The class given is cell-based. The method, then:
A series of V. harveyi strains (wild-type and mutants), marine bacteria which are used as a widely accepted model for testing quorum sensing, was used in the experiments below.
MIC was determined according to the CLSI, formerly NCCLS (National Committee for Clinical Laboratory Standards) recommendation for broth dilution antibacterial susceptibility test.
All the tested V. harveyi strains (adjusted to 0.5 MacFarlane standard suspension) were grown at 30° C., in the presence of the tested agent at concentrations ranging from 2 μM to 10 mM, in 96-well transparent micro-titration plates (NUNC, Denmark).
After 18 hours of incubation, bacterial growth was determined according to the density measured by absorbance at 595 nm (GENios reader TECAN-Austria).
Each experiment was conducted in triplicate samples and repeated three times. Based on MIC results, the exemplary anti-biofilm forming agent with the highest MIC values (lowest antibacterial activity) was selected for the anti-quorum sensing activity screening assay.
Background: In broth dilution the organism is exposed to a series of concentrations in liquid medium.

The test system of data set [7] is Vero cells. The experiment in a line: Vero cells detachment from T-flasks. The format is cell-based. The settings on record: 100 μg/ml TZD10 + 1.34 mM EDTA in PBS, 40 minutes. On the procedure: Vero cells were grown on for 6 days in T-flask with DMEM+10% FCS+Hepes+Glutamine+Pen-strep (Beit HaEmek). The cells were then washed with PBS and incubated for 40 minutes with 100 μg/ml TZD10+1.34 mM (about 0.5 mg/ml) EDTA in PBS without calcium and magnesium (Beit HaEmek).

The test system of data set [8] is Vero cells. Briefly: Vero cell viability assay (XTT). The class given is cell-based. The note with it: 160 minutes. The method, then: The effect of TZD10 on the viability of Vero cells was detected by incubating the cells for 40 minutes with TZD10, and further incubation for 120 minutes with the XTT reagents in the same medium without washings, so that the total incubation time with TZD10 was 160 minutes. The cells were treated with TZD10 for 40 minutes without the XTT reagents that were then added for further 120 minutes incubation.

For `CCCCCCCCC/C=C1\SC(=O)NC1=O` [TZD10, (Z)-5-decylidenethiazolidine-2,4-dione], the “effect on quorum sensing (luminescence)” value with V. harveyi strains [1] was “classic dose-response curve”. The “cell viability after detachment assay” value in the data set with Vero cells [2] (50 μg/ml, overnight incubation) is “most of the cells are still viable”. For the same compound, the cell detachment result is reported as “most of the cells were detached” with Vero cells [2] (100 μg/ml, 30 minutes) and “most of the cells were detached” in the data set on Vero cells [2] (200 μg/ml, 5 minutes). Also, the “toxicity compared with Vero cells” value in the data set with MDCK cells [3] is “more toxic to MDCK cells than to Vero cells”. Besides, the “cell detachment from the polystyrene dish” value in the data set with MDCK cells [4] is on record as “detached”. Moreover, the “time of detachment compared with Vero cells” value with MDCK cells [4] is recorded as “observed sooner than it has been observed with Vero cells”. Further, in data set [5], the biofilm disruption result was “dose response effect of biofilm disruption”. The antibacterial activity result in the data set on V. harveyi strains [6] (V. harveyi mutants and wild-type) was “lack of antibacterial activity per se”. Further, the minimal inhibitory concentration (MIC) against V. harveyi strains [6] (Vibrio harveyi) is below 10 mM; in the data set with V. harveyi strains [6] (strain BB120 (wild-type)), below 10 mM; against V. harveyi strains [6] (strain BB170 (sensor 1-, sensor 2+)) it was below 10 mM; in the data set on V. harveyi strains [6] (strain BB721 (LuxO null)), below 10 mM; in the data set with V. harveyi strains [6] (strain BB886 (sensor 1+, sensor 2-)), below 10 mM. In addition, the “cell release from T-flask” value with Vero cells [7] is “could be released from the flask by pipettetion”. For the same compound, the “toxicity to Vero cells” value is recorded as “partially cytotoxic” in the data set with Vero cells [8] (125 μg/ml and above); “not toxic” in the data set on Vero cells [8] (up to 100 μg/ml).
